Data from patent publication US12707555B2, “Low-temperature dielectric barrier discharge devices” (The Trustees of Princeton University, priority 2022, dated 2026).

Key:
E. coli 10-beta = experiment: Quantitative disinfection of bacteria dried on glass coverslips (CFU count, log reduction); assay type: cell-based; conditions: 3% H2O2 alone, flex-DBD off; R=0.97
Method: (§1) To quantify disinfection, bacteria (E. coli 10-beta, Standard E. coli AMS 198 or OP50-GFP) were inoculated on glass coverslips (25 mm diameter). Four droplets of 5 μl each (20 μl) of the bacterial culture (starting concentration 10^8 CFU/ml) were placed onto each coverslip and allowed to dry for approximately 40 min. The slides with dry bacterial culture were then placed onto the flex-DBD with the inoculated side directly in contact with the discharge. The coverslips were treated for 10, 30, 90, and 270 s. At the end of the treatment time, the treated coverslip was placed in a centrifuge tube with 7.5 ml LB, enough to cover the coverslip. The tubes were vortexed on a medium setting for 20 s to recover the bacteria from the treated surface but not damage the cell membrane. The resulting bacterial suspension was spread on LB-agar plates and incubated for 24 h. Cultures were then counted and the number used to calculate the logarithmic reductions of bacterial concentration. […] Pieces of material were disinfected by soaking for 5 min in a 70% solution of isopropyl alcohol then dried thoroughly for at least 30 min. […] An inoculated glass coverslip was placed on top of the solution with the bacteria in contact with the solution. […] Statistical significance between pairs of treatments was evaluated using repeated measures ANOVA.

[1] = system: E. coli AMS 198 (ATCC-11229); experiment: as above; assay type: cell-based; conditions: 3% H2O2 alone, flex-DBD off; R=0.947
Method: as §1

E. coli = experiment: Disinfection of inoculated coverslips with flex-DBD in conjunction with 3% H2O2 solution (strain not stated at the result); assay type: cell-based; conditions: H2O2 with only UV radiation from flex-DBD (UV filter); after the first 30 s
Method: Pieces of material were disinfected by soaking for 5 min in a 70% solution of isopropyl alcohol then dried thoroughly for at least 30 min. […] An inoculated glass coverslip was placed on top of the solution with the bacteria in contact with the solution. At the end of each treatment, the coverslip and the cloth were dropped into a centrifuge tube with 7.5 ml of LB solution. The same recovery and plating procedure was used in all experiments. […] To block all the output from the plasma except light, a thin film filter transparent down to 190 nm was placed between the DBD and H2O2. […] When possible, ImageJ (1.53c) software was used to count CFUs, otherwise the counting was done visually. […] All the experiments were performed in triplicates of samples and plates. Statistical significance between pairs of treatments was evaluated using repeated measures ANOVA.

bacterial load = conditions: cited from earlier work

OO [H2O2, hydrogen peroxide]
time for 1 log10 reduction, D (E. coli 10-beta): 139±5 s
time for 1 log10 reduction, D [1]: 135±5 s
time for 1 log10 reduction, D (E. coli): > 250 s
reduction (bacterial load; H2O2 droplets added into a corona discharge): 6 log10
reduction in the bacterial load (bacterial load; H2O2 vapor added to the plasma effluent): greater than 6 log10
